Here are results for 18 molecules from patent US20250042855A1, “PERIPHERALLY AND LUMINALLY-RESTRICTED INHIBITORS OF THE SEROTONIN TRANSPORTER AS TREATMENTS FOR DISORDERS OF GASTROINTESTINAL MOTILITY AND GUT-BRAIN AXIS” (The Johns Hopkins University, priority 2021, published 2025).

The structures appear in SMILES notation. Structures can show the parent of a compound that is named as a salt.

In test [1] the target is T1, serotonin transporter SERT (Homo sapiens, UniProt P31645).
T1 construct: host or cells: HEK-293
Nature of the test: Uptake of serotonin (5-HT) in human HEK-293 cells, quantitation of [3H] serotonin. It counts as cell-based. As to conditions: HEK293, 0.25 h, 10 micromolar concentration, 15 minutes @ 25° C., read-out: Activity Range: antagonism of uptake of serotonin (5-HT). The method, then: Uptake of serotonin (5-Hydroxytryptamine (5-HT)) in human HEK-293 cells embryonic kidney was measured according to the literature procedure by Gu H, Wall S. C. and Rudnick G. J Biol Chem. 1994 269, 7124. Using the following conditions: • Quantitation Method: Quantitation of [^3H] Serotonin • Vehicle: 0.50% DMSO • Incubation Time/Temp: 15 minutes @ 25° C. • Incubation Buffer: 5 mM Tris —HCl, 7.5 mM HEPES, pH 7.1, 120 mM NaCl, 5.4 mM KCl, • 1.2 mM CaCl2, 1.2 mM MgSO4, 5 mM DGlucose, 1 mM Ascorbic Acid
Any compound with minimum of 20% antagonism at 10 micromolar concentration as described above, is deemed a SERT inhibitor.

In test [2] the test system is gastric emptying in C57B/6 mice. Nature of the test: Gastric emptying (phenol red) in IBS and control mice after 10 days of oral treatment. As to conditions: P<0.05; for gastric emptying: 10 mg/kg by gavage once a day for 10 days, versus vehicle. It counts as in vivo. The source says:
In this experiment our aim was to study the effects of N-(2-((diaminomethylene)amino)ethyl)-4-(((3S,4R)-4-(4-fluorophenyl)piperidin-3-yl)methoxy)benzamide (example 8) in healthy mice as well as those with a model of gastrointestinal dysmotility (irritable bowel syndrome). The IBS model was induced by mild neonatal colorectal irritation in C57B/6 mice; control mice received saline. Twenty μL of 0.5% acetic acid (AA) or saline were infused into the colorectum of mice during postnatal day 9-12. Pups were weaned at 3 weeks of age and allowed to grow up normally and tested after 8-12 weeks of age.
Male IBS and control mice were treated with vehicle, Example 8 (10 mg/kg) and paroxetine (10 mg/kg) by gavage (10 ml/kg) once a day for 10 days. On the day 9, mice were fasted overnight. On the day 10, mice were treated with drugs followed by gavage with 0.3 ml of 0.05% phenol red in methylcellulose solution. Fifteen minutes later, mice were sacrificed and the stomach was removed after ligating the cardia and pylorus with hemostats. One mouse was sacrificed immediately after gavage of phenol red (0 time) used as control. The stomachs were homogenized and phenol red were extracted. After measuring the density of phenol red, the gastric empty was calculated as
The data were analyzed by Two-WAY ANOVA followed by Student-Newman-Keuls post-hoc test.

Setting [3] is: IBS mice (neonatal acetic acid colorectal irritation).

T1 sequence (P31645 whole entry): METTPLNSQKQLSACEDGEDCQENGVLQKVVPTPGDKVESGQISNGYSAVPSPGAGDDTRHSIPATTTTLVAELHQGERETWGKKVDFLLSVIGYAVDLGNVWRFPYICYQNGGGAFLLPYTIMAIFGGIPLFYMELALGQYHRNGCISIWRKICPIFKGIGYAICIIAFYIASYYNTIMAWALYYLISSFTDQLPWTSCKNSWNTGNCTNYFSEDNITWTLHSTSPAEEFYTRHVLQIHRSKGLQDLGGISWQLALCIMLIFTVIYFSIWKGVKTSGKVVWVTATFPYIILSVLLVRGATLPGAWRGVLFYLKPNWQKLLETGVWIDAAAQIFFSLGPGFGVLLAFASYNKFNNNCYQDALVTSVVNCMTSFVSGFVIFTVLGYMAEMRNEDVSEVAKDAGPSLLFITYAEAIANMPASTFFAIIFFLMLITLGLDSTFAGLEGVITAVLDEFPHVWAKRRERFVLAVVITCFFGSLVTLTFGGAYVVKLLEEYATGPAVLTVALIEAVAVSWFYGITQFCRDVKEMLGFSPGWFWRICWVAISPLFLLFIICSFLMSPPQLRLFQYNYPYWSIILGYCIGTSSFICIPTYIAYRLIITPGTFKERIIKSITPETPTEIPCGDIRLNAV

As for `O=C(O)c1ccc(OC[C@@H]2CNCC[C@H]2c2ccc(F)cc2)cc1` [Example 1, 4-(((3S,4R)-4-(4-fluorophenyl)piperidin-3-yl)methoxy)benzoic acid hydrochloride], the inhibition at 10 µM in test [1] is greater than 50%.

On to `O=C(O)c1cccc(OC[C@@H]2CNCC[C@H]2c2ccc(F)cc2)c1` [Example 2, 3-(((3S,4R)-4-(4-fluorophenyl)piperidin-3-yl)methoxy)benzoic acid hydrochloride], for which, in test [1], the inhibition at 10 µM was in the range of 40 to 50%.

For `O=C(O)c1ccc(OC[C@@H]2CNCC[C@H]2c2ccc(F)cc2)cc1O` [Example 3, 4-(((3S,4R)-4-(4-fluorophenyl)piperidin-3-yl)methoxy)-2-hydroxybenzoic acid hydrochloride], in test [1], the inhibition at 10 µM was greater than 50%.

On to `COc1ccc(OC[C@@H]2CNCC[C@H]2c2ccc(F)cc2)cc1C(=O)O` [Example 4, 5-(((3S,4R)-4-(4-fluorophenyl)piperidin-3-yl)methoxy)-2-methoxybenzoic acid hydrochloride], for which the inhibition at 10 µM in test [1] is greater than 50%.

`NCCNC(=O)c1ccc(OC[C@@H]2CNCC[C@H]2c2ccc(F)cc2)cc1` [Example 5, N-(2-aminoethyl)-4-(((3S,4R)-4-(4-fluorophenyl)piperidin-3-yl)-methoxy)benzamide hydrochloride]: the inhibition at 10 µM in test [1] was greater than 50%.

Take `CN(C)CCNC(=O)c1ccc(OC[C@@H]2CNCC[C@H]2c2ccc(F)cc2)cc1` [Example 6, N-(2-(dimethylamino)ethyl)-4-(((3S,4R)-4-(4-fluorophenyl)piperidin-3-yl)methoxy)benzamide hydrochloride]: in test [1], the inhibition at 10 µM was greater than 50%.

In the case of `CN(C)CCN(C)C(=O)c1ccc(OC[C@@H]2CNCC[C@H]2c2ccc(F)cc2)cc1` [Example 7, N-(2-(dimethylamino)ethyl)-4-(((3S,4R)-4-(4-fluorophenyl)piperidin-3-yl)methoxy)-N-methylbenzamide hydrochloride], the inhibition at 10 µM in test [1] is greater than 50%.

For the molecule `NC(N)=NCCNC(=O)c1ccc(OC[C@@H]2CNCC[C@H]2c2ccc(F)cc2)cc1` [Example 8, N-(2-((diaminomethylene)amino)ethyl)-4-(((3S,4R)-4-(4-fluorophenyl)piperidin-3-yl)methoxy)benzamide], the inhibition at 10 µM in test [1] was greater than 50%. Moreover, the liquid gastric emptying entry in test [2] (FIG. 1, chronic treatment, versus H2O treated group in the same model) is given as “increases”. Also, the gastric emptying entry in test [2] (setting [3]) and in test [2] (saline (control) mice) was “significantly increased” throughout.

Regarding `NC(=O)NCCNC(=O)c1ccc(OC[C@@H]2CNCC[C@H]2c2ccc(F)cc2)cc1` [Example 9, 4-(((3S,4R)-4-(4-fluorophenyl)piperidin-3-yl)methoxy)-N-(2-ureidoethyl)benzamide hydrochloride], the inhibition at 10 µM in test [1] was greater than 50%.

Consider `NCCOc1ccc(OC[C@@H]2CNCC[C@H]2c2ccc(F)cc2)cc1` [Example 10, 2-(4-(((3S,4R)-4-(4-fluorophenyl)piperidin-3-yl)methoxy)phenoxy)-ethan-1-amine hydrochloride], for which the inhibition at 10 µM in test [1] lay in the range of 40 to 50%.

Take `CN(C)CCOc1ccc(OC[C@@H]2CNCC[C@H]2c2ccc(F)cc2)cc1` [Example 11, 2-(4-(((3S,4R)-4-(4-fluorophenyl)piperidin-3-yl)methoxy)phenoxy)-N,N-dimethylethan-1-amine hydrochloride]: in test [1], the inhibition at 10 µM was 40 to 50%.

Regarding `CN(C)CCCOc1ccc(OC[C@@H]2CNCC[C@H]2c2ccc(F)cc2)cc1` [Example 12, 3-(4-(((3S,4R)-4-(4-fluorophenyl)piperidin-3-yl)methoxy)phenoxy)-N,N-dimethylpropan-1-amine hydrochloride], the inhibition at 10 µM in test [1] was greater than 50%.

Turning to `OCCOc1ccc(OC[C@@H]2CNCC[C@H]2c2ccc(F)cc2)cc1` [Example 13, 2-(4-(((3S,4R)-4-(4-fluorophenyl)piperidin-3-yl)methoxy)phenoxy)ethan-1-ol hydrochloride], the inhibition at 10 µM in test [1] was greater than 50%.

With `OCCOCCOc1ccc(OC[C@@H]2CNCC[C@H]2c2ccc(F)cc2)cc1` [Example 14, 2-(2-(4-(((3S,4R)-4-(4-fluorophenyl)piperidin-3-yl)methoxy)phenoxy)ethoxy)ethan-1-ol hydrochloride], the inhibition at 10 µM in test [1] fell in the range of 20 to 40%.

As to `O=C(O)COc1ccc(OC[C@@H]2CNCC[C@H]2c2ccc(F)cc2)cc1` [Example 15, 2-(4-(((3S,4R)-4-(4-fluorophenyl)piperidin-3-yl)methoxy)phenoxy)acetic acid hydrochloride], the inhibition at 10 µM in test [1] fell in the range of 20 to 40%.

Take `O=C(O)COCCOc1ccc(OC[C@@H]2CNCC[C@H]2c2ccc(F)cc2)cc1` [Example 16, 2-(2-(4-(((3S,4R)-4-(4-fluorophenyl)piperidin-3-yl)methoxy)phenoxy)-ethoxy)acetic acid hydrochloride]: the inhibition at 10 µM in test [1] was 20 to 40%.

Regarding `C[N+]1(C)CC[C@@H](c2ccc(F)cc2)[C@H](CCc2ccc3c(c2)OCO3)C1` [Example 17, (3S,4R)-3-(2-(benzo[d][1,3]dioxol-5-yl)ethyl)-4-(4-fluorophenyl)-1,1-dimethylpiperidin-1-ium iodide], the inhibition at 10 µM in test [1] is greater than 50%.

For `Fc1ccc([C@@H]2CCNC[C@H]2COc2ccc3c(c2)OCO3)cc1` [paroxetine, reference compound], the gastric emptying result in test [2] (setting [3]) and in test [2] (saline (control) mice) was “not observed” each time.
